Assay results taken from patent publication US12365696B2, “Small-molecule focal adhesion kinase (FAK) inhibitors” (DANA-FARBER CANCER INSTITUTE, INC., priority 2019, dated 2025).

Key:
MDA-MB-231 cells [1] = assay: 2D-adherent monolayer cell viability (Cell Titer-Glo), 120 hrs; format: cell-based; settings: Homo sapiens
Method: (§1) For 2D-adherent monolayer experiments, MDA-MB-231 cells were plated in 384-well format and allowed to adhere overnight. Cells were treated with indicated molecules from compound stock plates using a JANUS® Workstation pin tool for 120 hrs. To measure cell viability, Cell Titer-Glo® was added to wells for 15 minutes at room temperature and luminescence was measured on an EnVision™ 2104 Multilabel Plate Reader.
Inventive compound treatment (0.00063-20 μM) led to antiproliferative effects in MDA-MB-231 cells cultured as 2D-adherent monolayers or as ultra-low adherent 3D-spheroid suspensions (Table 5).

MDA-MB-231 cells [2] = assay: ultra-low adherent 3D-spheroid suspension cell viability (3D Cell Titer-Glo), 120 hours; format: cell-based; settings: Homo sapiens
Method: as §1, with “ultra-low adherent 3D-spheroid suspensions,” for “2D-adherent monolayer experiments,”, “format in media containing 10% Matrigel®” for “format”, “form spheroids” for “adhere”, “hours.” for “hrs.”, “viability, 3D” for “viability,”

PTK2 (FAK) = PTK2 (FAK) (Homo sapiens (Human), UniProt Q05397); assay: Z′-LYTE kinase assay (SelectScreen Biochemical Kinase Profiling), enzymatic IC50; settings: for IC50: enzymatic, Z′-LYTE, read-out: FAK IC50
Method: Enzymatic IC50 data was obtained through ThermoFisher Scientific SelectScreen™ Biochemical Kinase Profiling Service, using a Z′-LYTE™ kinase-specific assay, as described below.
The test compounds were screened in 1% dimethyl sulfoxide (DMSO) (final) in the well. For 10 point titrations, 3-fold serial dilutions were conducted from the starting concentration.
All peptide/kinase mixtures were diluted to a 2× working concentration in the appropriate kinase buffer (see section kinase specific assay conditions for a complete description).
All ATP solutions were diluted to a 4× working concentration in kinase buffer (50 mM 4-(2-hydroxyethyl)-1-piperazineethanesulfonic acid (HEPES) pH 7.5, 0.01% BRIJ-35, 10 mM MgCl2, 1 mM ethylene glycol-bis(β-aminoethyl ether)-N,N,N′,N′-tetraacetic acid (EGTA)). ATP Km apparent was previously determined using a Z′-LYTE assay.
The development reagent was diluted in development buffer (see section kinase-specific assay conditions—direct and cascade for a complete description).
Using a bar-coded Corning, low volume NBS, black 384-well plate (Corning Cat. #4514), 100 nL of 100× test compound in 100% DMSO was added. […] The plate was then shaken for 30 seconds and held at room temperature for a 60 minute kinase reaction incubation period. At which point 5 μL of development reagent solution was added and the plate was shaken for 30 seconds. The plate was held again at room temperature for a 60 minute development reaction incubation period and then read on a fluorescence plate reader and analyzed.
The 2×PTK2 (FAK)/Tyr 07 mixture was prepared in 50 mM HEPES pH 7.5, 0.01% BRIJ-35, 10 mM MgCl2, 1 mM EGTA. […] After the 1 hour kinase reaction incubation period, 5 μL of a 1:16 dilution of development reagent B was added.
SelectScreen Kinase Profiling Service uses XLfit from ID Business Solutions (IDBS). The dose response curve was curve fit to model number 205 (sigmoidal dose-response model).

Sequence of PTK2 (FAK) (Q05397 whole entry): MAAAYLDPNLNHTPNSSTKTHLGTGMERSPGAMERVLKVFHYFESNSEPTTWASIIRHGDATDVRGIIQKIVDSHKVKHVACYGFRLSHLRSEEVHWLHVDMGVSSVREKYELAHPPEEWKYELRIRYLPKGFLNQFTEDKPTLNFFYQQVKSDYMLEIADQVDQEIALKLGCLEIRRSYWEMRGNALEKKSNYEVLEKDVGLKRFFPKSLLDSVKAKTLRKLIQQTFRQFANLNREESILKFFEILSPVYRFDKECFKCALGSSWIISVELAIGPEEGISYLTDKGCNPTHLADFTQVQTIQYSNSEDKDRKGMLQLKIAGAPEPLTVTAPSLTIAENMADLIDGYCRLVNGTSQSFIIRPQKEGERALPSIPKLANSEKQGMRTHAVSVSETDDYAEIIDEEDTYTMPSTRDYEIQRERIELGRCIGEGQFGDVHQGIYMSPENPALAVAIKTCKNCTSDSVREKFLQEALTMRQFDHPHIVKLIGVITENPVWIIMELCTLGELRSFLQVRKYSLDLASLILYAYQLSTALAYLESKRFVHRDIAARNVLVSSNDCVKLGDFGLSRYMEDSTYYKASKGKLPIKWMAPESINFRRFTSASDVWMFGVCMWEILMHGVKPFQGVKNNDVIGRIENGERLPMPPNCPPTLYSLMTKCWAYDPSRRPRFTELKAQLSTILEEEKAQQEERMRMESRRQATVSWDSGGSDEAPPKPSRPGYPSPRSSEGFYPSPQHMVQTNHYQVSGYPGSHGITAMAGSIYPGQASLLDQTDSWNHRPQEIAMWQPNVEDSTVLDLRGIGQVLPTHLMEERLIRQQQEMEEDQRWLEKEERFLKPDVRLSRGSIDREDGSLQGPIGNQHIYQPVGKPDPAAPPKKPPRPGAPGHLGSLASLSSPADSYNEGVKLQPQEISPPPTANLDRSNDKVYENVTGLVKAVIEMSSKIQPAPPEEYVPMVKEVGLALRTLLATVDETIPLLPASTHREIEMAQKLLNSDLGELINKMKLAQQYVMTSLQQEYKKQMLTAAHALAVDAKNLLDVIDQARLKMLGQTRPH

SMILES	IC50 (MDA-MB-231 cells [1]) [nM]	IC50 (MDA-MB-231 cells [2]) [nM]	IC50 (PTK2 (FAK)) [nM]	lower potency relative to 5 (PTK2 (FAK); FAK IC50) [fold]
COc1cc(C2CCN(C)CC2)ccc1Nc1ncc2c(n1)N(C)c1sc(C)nc1C(=O)N2C [Compound 19, 6-((2-methoxy-4-(1-methylpiperidin-4-yl)phenyl)amino)-2,4,9-trimethyl-4,9-dihydro-10H-pyrimido[5,4-b]thiazolo[5,4-e][1,4]diazepin-10-one]	8900	3700	51.9	–
COc1cc(N2CCN(CCO)CC2)ccc1Nc1ncc2c(n1)N(C)c1sc(C)nc1C(=O)N2C [Compound 20, 6-((4-(4-(2-hydroxyethyl)piperazin-1-yl)-2-methoxyphenyl)amino)-2,4,9-trimethyl-4,9-dihydro-10H-pyrimido[5,4-b]thiazolo[5,4-e][1,4]diazepin-10-one]	> 10000	> 10000	73.9	–
CCN1c2nc(Nc3ccc(N4CCC(N5CCN(C)CC5)CC4)cc3OC)ncc2N(C)C(=O)c2nc(C)sc21 [Compound 159, 4-ethyl-6-((2-methoxy-4-(4-(4-methylpiperazin-1-yl)piperidin-1-yl)phenyl)amino)-2,9-dimethyl-4,9-dihydro-10H-pyrimido[5,4-b]thiazolo[5,4-e][1,4]diazepin-10-one]	> 10000	> 10000	22.9	–
COc1cc2c(cc1Nc1ncc3c(n1)N(C)c1sc(C)nc1C(=O)N3C)CN(C)CC2 [Compound 22, 6-((6-methoxy-2-methyl-1,2,3,4-tetrahydroisoquinolin-7-yl)amino)-2,4,9-trimethyl-4,9-dihydro-10H-pyrimido[5,4-b]thiazolo[5,4-e][1,4]diazepin-10-one]	> 10000	> 10000	37.8	–
COc1cc(N2CCN(C)CC2)c(C)cc1Nc1ncc2c(n1)N(C)c1sc(C)nc1C(=O)N2C [Compound 18, 6-((2-methoxy-5-methyl-4-(4-methylpiperazin-1-yl)phenyl)amino)-2,4,9-trimethyl-4,9-dihydro-10H-pyrimido[5,4-b]thiazolo[5,4-e][1,4]diazepin-10-one]	> 10000	7700	31.5	–
Cc1nc2c(s1)N(C)c1nc(Nc3ccc4c(c3)CCC(=O)N4)ncc1N(C)C2=O [Compound 23, 2,4,9-trimethyl-6-((2-oxo-1,2,3,4-tetrahydroquinolin-6-yl)amino)-4,9-dihydro-10H-pyrimido[5,4-b]thiazolo[5,4-e][1,4]diazepin-10-one]	> 10000	> 10000	670	–
COc1cc(N2CCNCC2)ccc1Nc1ncc2c(n1)N(C)c1sc(C)nc1C(=O)N2C [Compound 12, 6-((2-methoxy-4-(piperazin-1-yl)phenyl)amino)-2,4,9-trimethyl-4,9-dihydro-10H-pyrimido[5,4-b]thiazolo[5,4-e][1,4]diazepin-10-one]	> 10000	2500	43.5	–
COc1cc(C(=O)N2CCC(N3CCN(C)CC3)CC2)ccc1Nc1ncc2c(n1)N(C)c1sc(C)nc1C(=O)N2C [Compound 28, 6-((2-methoxy-4-(4-(4-methylpiperazin-1-yl)piperidine-1-carbonyl)phenyl)amino)-2,4,9-trimethyl-4,9-dihydro-10H-pyrimido[5,4-b]thiazolo[5,4-e][1,4]diazepin-10-one]	> 10000	> 10000	77.7	–
CCN1C(=O)c2nc(C)sc2N(C)c2nc(Nc3ccc(N4CCC(N5CCN(C)CC5)CC4)cc3OC)ncc21 [Compound 132, 9-ethyl-6-((2-methoxy-4-(4-(4-methylpiperazin-1-yl)piperidin-1-yl)phenyl)amino)-2,4-dimethyl-4,9-dihydro-10H-pyrimido[5,4-b]thiazolo[5,4-e][1,4]diazepin-10-one]	> 10000	930	18.8	–
CNC(=O)c1ccc(Nc2ncc3c(n2)N(C)c2sc(C)nc2C(=O)N3C)cc1 [Compound 197, N-methyl-4-((2,4,9-trimethyl-10-oxo-9,10-dihydro-4H-pyrimido[5,4-b]thiazolo[5,4-e][1,4]diazepin-6-yl)amino)benzamide]	> 10000	5900	173	–
CNC(=O)c1ccc(Nc2ncc3c(n2)N(C)c2sc(C)nc2C(=O)N3C)c(OC)c1 [Compound 21, 3-methoxy-N-methyl-4-((2,4,9-trimethyl-10-oxo-9,10-dihydro-4H-pyrimido[5,4-b]thiazolo[5,4-e][1,4]diazepin-6-yl)amino)benzamide]	> 10000	> 10000	45.4	–
CCOc1cc(N2CCN(C)CC2)ccc1Nc1ncc2c(n1)N(C)c1sc(C)nc1C(=O)N2C [Compound 16, 6-((2-ethoxy-4-(4-methylpiperazin-1-yl)phenyl)amino)-2,4,9-trimethyl-4,9-dihydro-10H-pyrimido[5,4-b]thiazolo[5,4-e][1,4]diazepin-10-one]	> 10000	6100	54.5	–
COc1cc(N2CCN(C)CC2)ccc1Nc1ncc2c(n1)N(C)c1sc(C)nc1C(=O)N2C [Compound 14, 6-((2-methoxy-4-(4-methylpiperazin-1-yl)phenyl)amino)-2,4,9-trimethyl-4,9-dihydro-10H-pyrimido[5,4-b]thiazolo[5,4-e][1,4]diazepin-10-one]	> 10000	2300	30.3	–
C=CC(=O)N1CCN(c2ccc(Nc3ncc4c(n3)N(C)c3sc(C)nc3C(=O)N4C)c(OC)c2)CC1 [Compound 13, 6-((4-(4-acryloylpiperazin-1-yl)-2-methoxyphenyl)amino)-2,4,9-trimethyl-4,9-dihydro-10H-pyrimido[5,4-b]thiazolo[5,4-e][1,4]diazepin-10-one]	–	–	53.6	–
COc1cc(N2CCC(N3CCN(C)CC3)CC2)ccc1Nc1ncc2c(n1)N(C)c1sc(C(F)(F)F)nc1C(=O)N2C [Compound 177, 6-((2-methoxy-4-(4-(4-methylpiperazin-1-yl)piperidin-1-yl)phenyl)amino)-4,9-dimethyl-2-(trifluoromethyl)-4,9-dihydro-10H-pyrimido[5,4-b]thiazolo[5,4-e][1,4]diazepin-10-one]	–	–	134	~10
COc1cc(N2CCN(S(C)(=O)=O)CC2)ccc1Nc1ncc2c(n1)N(C)c1sc(C)nc1C(=O)N2C [Compound 198, 6-((2-methoxy-4-(4-(methylsulfonyl)piperazin-1-yl)phenyl)amino)-2,4,9-trimethyl-4,9-dihydro-10H-pyrimido[5,4-b]thiazolo[5,4-e][1,4]diazepin-10-one]	> 10000	> 10000	46.9	–
Cc1nc2c(s1)N(C)c1nc(Nc3ccc(N4CCN(C)CC4)cn3)ncc1N(C)C2=O [Compound 24, 2,4,9-trimethyl-6-((5-(4-methylpiperazin-1-yl)pyridin-2-yl)amino)-4,9-dihydro-10H-pyrimido[5,4-b]thiazolo[5,4-e][1,4]diazepin-10-one]	–	–	196	–
